The nature of this data set: recombinant UMI read abundance after kanamycin selection (control-corrected) (log10(CPM+1)); higher = more efficient recombination; extreme values may be limits of the assay; sequences stand for … in AGTGCAGAGAAAATCGGCCAGTTTTCTCTGCCTGCAGTCCGCATGCCGTGGGACCCCTTGGGTTCTAACCTGTTGCCTAGATTTATGCAGCGGACTGCCTTTCTCCCAAAGTGATAAACCGG…AGGTTGGTTTCACT; site = the 11-nt donor. The method in brief:
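Under IPTG (0.07 mM) plus kanamycin, or without selection, Escherichia coli carrying a UMI-tagged donor and donor-binding-loop pair library and a target plasmid for the IS621 bridge recombinase were plated in two replicates. Recombinant UMIs were PCR-amplified across the donor–target junction and sequenced. Counts were converted to CPM, averaged over replicates, scaled by control-derived factors and reported as log10(CPM+1).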
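Note: IS621 bridge recombinase in Escherichia coli cells against a fixed T5 target plasmid.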

Take “GACTAGTCATGGACCGGTTTTCCCGGTAATCCGTATTTGTG (site GACTAGTCTCA)”: the “recombinant UMI read abundance (log10)” value was 1.64. Regarding “GACTCTTCATGGACCGGTTTTCCCGGTAATCCGTATTTGGC (site GACTCTTCTGC)”, the “recombinant UMI read abundance (log10)” value turned out to be 1.04.

Consider “GACTGGACATGGACCGGTTTTCCCGGTAATCCGTATTTGGT (site GACTGGACTAC)”, for which the “recombinant UMI read abundance (log10)” value turned out to be 0.826.

“GACTTTGCATGGACCGGTTTTCCCGGTAATCCGTATTTGCA (site GACTTTGCTTG)”: the “recombinant UMI read abundance (log10)” value is 0. Turning to “GAGATCACATGGACCGGTTTTCCCGGTAATCCGTATTTGAT (site GAGATCACTAT)”, the “recombinant UMI read abundance (log10)” value is 2.13. Consider “GAGATCACATGGACCGGTTTTCCCGGTAATCCGTATTTGAT (site GAGCTCACTAT)”, for which the “recombinant UMI read abundance (log10)” value came to 0.00919. With “GAGATCACATGGACCGGTTTTCCCGGTAATCCGTATTTGAT (site GAGGTCACTAT)”, the “recombinant UMI read abundance (log10)” value was 0.0122. For “GAGATCACATGGACCGGTTTTCCCGGTAATCCGTATTTGAT (site GAGTTCACTAT)”, the “recombinant UMI read abundance (log10)” value was 0.113. Then “GAGCAAGCATGGACCGGTTTTCCCGGTAATCCGTATTTGCA (site GAGCAAGCTTG)”, with 2.68. The value for “GAGCAGACATGGACCGGTTTTCCCGGTAATCCGTATTTGTG (site GAGCAGACTCA)” was 1.25. The value for “GAGCCCACATGGACCGGTTTTCCCGGTAATCCGTATTTGAT (site GAGCACACTAT)” was 0.

Take “GAGCCCACATGGACCGGTTTTCCCGGTAATCCGTATTTGAT (site GAGCCCACTAT)”: the “recombinant UMI read abundance (log10)” value was 1.66.

Regarding “GAGCCCACATGGACCGGTTTTCCCGGTAATCCGTATTTGAT (site GAGCGCACTAT)”, the “recombinant UMI read abundance (log10)” value worked out at 0.0147. Turning to “GAGCCCACATGGACCGGTTTTCCCGGTAATCCGTATTTGAT (site GAGCTCACTAT)”, the “recombinant UMI read abundance (log10)” value turned out to be 0.00621.

Turning to “GAGCGCGCATGGACCGGTTTTCCCGGTAATCCGTATTTGCG (site GAGCGCGCTCG)”, the “recombinant UMI read abundance (log10)” value was found to be 1.56. Turning to “GAGCTCACATGGACCGGTTTTCCCGGTAATCCGTATTTGGT (site GAGCTCACTAA)”, the “recombinant UMI read abundance (log10)” value was 0.274. Then “GAGCTCACATGGACCGGTTTTCCCGGTAATCCGTATTTGGT (site GAGCTCACTAC)”, with 0.841; and “GAGCTCACATGGACCGGTTTTCCCGGTAATCCGTATTTGGT (site GAGCTCACTAG)”, with 1.37; and “GAGCTCACATGGACCGGTTTTCCCGGTAATCCGTATTTGGT (site GAGCTCACTAT)”, with 0.971.

For “GAGCTCGCATGGACCGGTTTTCCCGGTAATCCGTATTTGAT (site GAGCTCACTAT)”, the “recombinant UMI read abundance (log10)” value turned out to be 1.7. Regarding “GAGCTCGCATGGACCGGTTTTCCCGGTAATCCGTATTTGAT (site GAGCTCCCTAT)”, the “recombinant UMI read abundance (log10)” value was found to be 0.626. For the sequence “GAGCTCGCATGGACCGGTTTTCCCGGTAATCCGTATTTGAT (site GAGCTCGCTAT)”, the “recombinant UMI read abundance (log10)” value came to 2.26. In the case of “GAGCTCGCATGGACCGGTTTTCCCGGTAATCCGTATTTGAT (site GAGCTCTCTAT)”, the “recombinant UMI read abundance (log10)” value worked out at 1.37. With “GAGGAAACATGGACCGGTTTTCCCGGTAATCCGTATTTGCT (site GAGGAAACTAG)”, the “recombinant UMI read abundance (log10)” value worked out at 0.

With “GAGGAACCATGGACCGGTTTTCCCGGTAATCCGTATTTGGA (site GAGGAACCTTC)”, the “recombinant UMI read abundance (log10)” value turned out to be 0.00548. For “GAGGATGCATGGACCGGTTTTCCCGGTAATCCGTATTTGAA (site GAGGATGCTTT)”, the “recombinant UMI read abundance (log10)” value stood at 2.56. On to “GAGGTAGCATGGACCGGTTTTCCCGGTAATCCGTATTTGAT (site GAGGTAGCTAT)”, for which the “recombinant UMI read abundance (log10)” value came out at 2.43. As for “GAGTAGCCATGGACCGGTTTTCCCGGTAATCCGTATTTGTC (site GAGTAGCCTGA)”, the “recombinant UMI read abundance (log10)” value was determined as 0. As for “GAGTGGACATGGACCGGTTTTCCCGGTAATCCGTATTTGAC (site GAATGGACTGT)”, the “recombinant UMI read abundance (log10)” value worked out at 1.75. The value for “GAGTGGACATGGACCGGTTTTCCCGGTAATCCGTATTTGAC (site GACTGGACTGT)” was 0.208; that for “GAGTGGACATGGACCGGTTTTCCCGGTAATCCGTATTTGAC (site GAGTGGACTGT)” was 2.6. As to “GAGTGGACATGGACCGGTTTTCCCGGTAATCCGTATTTGAC (site GATTGGACTGT)”, the “recombinant UMI read abundance (log10)” value stood at 0.

On to “GATAAGCCATGGACCGGTTTTCCCGGTAATCCGTATTTGCC (site GATAAGCCTGG)”, for which the “recombinant UMI read abundance (log10)” value was 0. “GATACGTCATGGACCGGTTTTCCCGGTAATCCGTATTTGTT (site GATACGTCTAA)”: the “recombinant UMI read abundance (log10)” value came to 0.338.

Regarding “GATACGTCATGGACCGGTTTTCCCGGTAATCCGTATTTGTT (site GCTACGTCTAA)”, the “recombinant UMI read abundance (log10)” value stood at 0.00442.

Take “GATACGTCATGGACCGGTTTTCCCGGTAATCCGTATTTGTT (site GGTACGTCTAA)”: the “recombinant UMI read abundance (log10)” value is 0.0473. The value for “GATACGTCATGGACCGGTTTTCCCGGTAATCCGTATTTGTT (site GTTACGTCTAA)” was 0.0167; that for “GATAGATCATGGACCGGTTTTCCCGGTAATCCGTATTTGAG (site GATAGATCTCT)” was 1.83. Take “GATCATCCATGGACCGGTTTTCCCGGTAATCCGTATTTGCT (site GATAATCCTAG)”: the “recombinant UMI read abundance (log10)” value amounted to 0. Then “GATCATCCATGGACCGGTTTTCCCGGTAATCCGTATTTGCT (site GATCATCCTAG)”, with 0.452. For the sequence “GATCATCCATGGACCGGTTTTCCCGGTAATCCGTATTTGCT (site GATGATCCTAG)”, the “recombinant UMI read abundance (log10)” value was found to be 0. Turning to “GATCATCCATGGACCGGTTTTCCCGGTAATCCGTATTTGCT (site GATTATCCTAG)”, the “recombinant UMI read abundance (log10)” value came to 0. On to “GATCCAACATGGACCGGTTTTCCCGGTAATCCGTATTTGTA (site GATCCAACTTA)”, for which the “recombinant UMI read abundance (log10)” value amounted to 0.0155. Then “GATCCAACATGGACCGGTTTTCCCGGTAATCCGTATTTGTA (site GCTCCAACTTA)”, with 0.00727. With “GATCCAACATGGACCGGTTTTCCCGGTAATCCGTATTTGTA (site GGTCCAACTTA)”, the “recombinant UMI read abundance (log10)” value worked out at 0.021. For the sequence “GATCCAACATGGACCGGTTTTCCCGGTAATCCGTATTTGTA (site GTTCCAACTTA)”, the “recombinant UMI read abundance (log10)” value is 0.0286. Regarding “GATCCGTCATGGACCGGTTTTCCCGGTAATCCGTATTTGTA (site GATCCGTCTTA)”, the “recombinant UMI read abundance (log10)” value worked out at 1.26.

In the case of “GATCGCTCATGGACCGGTTTTCCCGGTAATCCGTATTTGTT (site GATCGCTCTAA)”, the “recombinant UMI read abundance (log10)” value came out at 0.523. Consider “GATCTGCCATGGACCGGTTTTCCCGGTAATCCGTATTTGAA (site GATCTGCCTTT)”, for which the “recombinant UMI read abundance (log10)” value is 0.00302.

Turning to “GATGAAACATGGACCGGTTTTCCCGGTAATCCGTATTTGCC (site GATGAAACTGG)”, the “recombinant UMI read abundance (log10)” value amounted to 1.72.

For “GATGGGACATGGACCGGTTTTCCCGGTAATCCGTATTTGAC (site GATAGGACTGT)”, the “recombinant UMI read abundance (log10)” value turned out to be 1.69. “GATGGGACATGGACCGGTTTTCCCGGTAATCCGTATTTGAC (site GATCGGACTGT)”: the “recombinant UMI read abundance (log10)” value turned out to be 0.285. Consider “GATGGGACATGGACCGGTTTTCCCGGTAATCCGTATTTGAC (site GATGGGACTGT)”, for which the “recombinant UMI read abundance (log10)” value came to 2.75. On to “GATGGGACATGGACCGGTTTTCCCGGTAATCCGTATTTGAC (site GATTGGACTGT)”, for which the “recombinant UMI read abundance (log10)” value was 0.

As for “GATGTAACATGGACCGGTTTTCCCGGTAATCCGTATTTGCT (site AATGTAACTAG)”, the “recombinant UMI read abundance (log10)” value stood at 1.24. “GATGTAACATGGACCGGTTTTCCCGGTAATCCGTATTTGCT (site CATGTAACTAG)”: the “recombinant UMI read abundance (log10)” value was found to be 1.31. Then “GATGTAACATGGACCGGTTTTCCCGGTAATCCGTATTTGCT (site GATGTAACTAG)”, with 1.83; and “GATGTAACATGGACCGGTTTTCCCGGTAATCCGTATTTGCT (site TATGTAACTAG)”, with 1.83; and “GATGTATCATGGACCGGTTTTCCCGGTAATCCGTATTTGCA (site GATGTATCTTG)”, with 2.3. Regarding “GATGTTCCATGGACCGGTTTTCCCGGTAATCCGTATTTGGT (site GATGTTCCTAC)”, the “recombinant UMI read abundance (log10)” value came to 0.0188. The value for “GATGTTCCATGGACCGGTTTTCCCGGTAATCCGTATTTGGT (site GCTGTTCCTAC)” was 0.00282; that for “GATGTTCCATGGACCGGTTTTCCCGGTAATCCGTATTTGGT (site GGTGTTCCTAC)” was 0. The value for “GATGTTCCATGGACCGGTTTTCCCGGTAATCCGTATTTGGT (site GTTGTTCCTAC)” was 0.00388; that for “GATTAGACATGGACCGGTTTTCCCGGTAATCCGTATTTGCT (site TTGCTCCCTGT)” was 0; that for “GATTATCCATGGACCGGTTTTCCCGGTAATCCGTATTTGAT (site GATTATCCTAA)” was 0.0183. For the sequence “GATTATCCATGGACCGGTTTTCCCGGTAATCCGTATTTGAT (site GATTATCCTAC)”, the “recombinant UMI read abundance (log10)” value came to 0.0054. The value for “GATTATCCATGGACCGGTTTTCCCGGTAATCCGTATTTGAT (site GATTATCCTAG)” was 0; that for “GATTATCCATGGACCGGTTTTCCCGGTAATCCGTATTTGAT (site GATTATCCTAT)” was 0.

Source of the values: the supplement of paper PMC11208160.
